{"source": "patent EP1304101A1", "about": "“Composition and method for use of pyridinium derivatives in cosmetic and therapeutic applications” (Torrent Pharmaceuticals Ltd, priority 2001, dated 2003)", "key": {"AGE-BSA": {"target": "T1, AGE-BSA (Bos taurus, UniProt P02769)", "T1 construct": "Bovine serum albumin (fraction V) (BSA); from tissue", "T1 sequence (P02769 25-607)": "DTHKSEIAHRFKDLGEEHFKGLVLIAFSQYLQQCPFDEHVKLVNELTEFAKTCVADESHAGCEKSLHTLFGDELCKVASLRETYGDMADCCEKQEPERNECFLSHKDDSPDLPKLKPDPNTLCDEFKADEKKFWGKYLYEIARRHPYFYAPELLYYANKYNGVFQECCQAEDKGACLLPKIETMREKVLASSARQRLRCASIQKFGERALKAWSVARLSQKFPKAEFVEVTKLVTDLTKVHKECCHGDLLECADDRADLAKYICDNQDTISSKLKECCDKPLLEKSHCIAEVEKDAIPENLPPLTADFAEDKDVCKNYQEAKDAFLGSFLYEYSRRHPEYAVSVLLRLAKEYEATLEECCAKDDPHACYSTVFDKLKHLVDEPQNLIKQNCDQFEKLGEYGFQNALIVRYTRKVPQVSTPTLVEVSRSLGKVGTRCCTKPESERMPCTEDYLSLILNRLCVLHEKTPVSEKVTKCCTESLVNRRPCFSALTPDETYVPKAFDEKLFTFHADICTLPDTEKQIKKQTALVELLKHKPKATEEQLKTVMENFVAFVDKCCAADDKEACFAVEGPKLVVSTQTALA", "assay": "In-vitro AGE breaking activity by ELISA (16 weeks AGE-BSA incubated with test compound)", "format": "biochemical, bovine", "conditions": "for % Breakage: 37°C, 24 hours; for AGE breaking activity compared to PTB / potency (AGE breaking activity compared to PTB): comparison in words based on Table 2", "description": "AGE breaking activity has been confirmed by the screening procedure as mentioned below: • Materials: • Bovine serum albumin (fraction V) (BSA) • Glucose, analytical grade • Phosphate buffered saline (PBS) • Equipment: • Microplate ELISA Reader - Spectramax Plus (Molecular Devices, USA) • Microplate washer, (Bio -Tec Instruments, USA) • pH meter • Methods of experiment: Elisa (Enzyme Linked Immunosorbent Assay) 160 mg/ml of protein, bovine serum albumin, BSA and 1.6M glucose sugar were dissolved in phosphate buffered saline, PBS. Sodium azide was added at 0.02% concentration as a preservative. The solution was filtered asceptically through a 0.22 µM filter and kept for aging at 37°C for 16 weeks. After 16 weeks the solution was dialyzed against PBS, aliquoted and stored at - 20°C.\nTo determine the AGE breaking activity, 10 µg/ml of the 16 weeks AGE-BSA was incubated with different concentrations of the test compounds at 37°C for 24 hours and AGE breaking activity of the test compounds by ELISA was determined.\nDifferent concentrations of 16 weeks AGE-BSA were coated on a microtitre plate as standard. Each concentration is coated in triplicates. • 2. The test samples were coated on microtitre plate at a concentration of 5 ng. to 20 ng per well in triplicates. • 3. The plate was incubated at 37°C for one hour. • 4. After incubation the plate was washed with PBST (PBS with 0.05% Tween 20). • 5. Blocking with 5% skimmed milk in PBS at 37°C for one hour was done. • 6. The plate was washed with PBST. • 7. Primary antibody against AGE-BSA was added and the plate is incubated at 37°C for one hour. • 8. The plate was washed with PBST • 9. Secondary antibody anti rabbit HRPO (Horse-Radish Per Oxidase) conjugate was added and the plate is incubated at 37°C for one hour. • 10. The plate was washed with PBST. • 11. Colour development with OPD (orthophenylenediamine dihydrochloride) and hydrogen peroxide was done. • 12. OD (optical density) at (450nm reading - 620nm reading) was measured after incubation at 37°C for 15 minutes with Microplate ELISA Reader.\nThe breaker activity of the compounds were determined by the following formula: % Breaker activity =(OD450-620 Control - OD450-620 Test)/(OD450-620 Control)x 100 [formula] OD450-620Control= Absorbance of 20ng AGE-BSA after incubation at 37°C for 24 hours without test compound OD450-620Test= Absorbance of 20ng AGE-BSA after incubation at 37°C for 24 hours with required concentration of test compound"}, "[1]": {"assay": "Free radical scavenging activity on ABTS radical cation (absorbance at 730nm)", "format": "biochemical", "method": "This method measures the relative ability of free radical scavenging substances to scavenge the ABTS ^.+ i.e. 2,2-Azino-bis-(3-ethyl benzo thiazoline-6-sulfonate) radical cation as compared to a standard amount of standard or free radical scavengers antioxidants. Incubation of ABTS with Peroxidase (metmyoglobin) and hydrogen peroxide results in the production of radical cation ABTS^.+ . This species is blue- green in colour and can be detected at 730nm. Antioxidants or free radical scavengers in the added sample that causes suppression of the color to a degree that is proportional to their concentration.\n• A. Phosphate Citrate Buffer (pH 5.0): 48.5ml of 0.1M citric acid with sufficient 0.2M disodium hydrogen phosphate to produce 100 ml. • B. Phosphate Buffer Saline (PBS): Dissolve 40.0g of NaCl, 1.0g of KCI, 1.0g of KH2PO4 and 3.05g of Na2HPO4 in 1 litre milli-Q water. Dilute 200ml of above solution to 1 litre with milli-Q water (pH 7.4-7.6). • C. 3µM stock solution of Peroxidase was prepared in phosphate buffer saline pH 7.4(PBS). • D. 1.08 mM stock solution of Hydrogen peroxide was prepared in phosphate buffer saline pH 7.4 (PBS).\n1 tablet (10mg) was dissolved in phosphate citrate buffer (pH 5.0).\n5.0ml of ABTS stock solution was diluted with PBS to 20 ml.\n320 µg of the enzyme was dissolved in 2.5 ml of PBS.\n12µl of Hydrogen Peroxide (30%w/v) was diluted to 100ml with PBS.\n0.1mM of stock solution of the drug was prepared which was serially diluted in PBS to get solutions of different concentrations.\nTo 18ml of ABTS stock solution, 100µl of Horseradish Peroxidase stock solution was added.\nAs soon as 1.5 ml of hydrogen peroxide solution was added to the above solution, blue-green colour of the ABTS radicals appeared. This solution was incubated at 30°C for 30 min.\n980µl of ABTS radical stock solution was added to an eppendorf tube. To it was added 100µl of various PBS solution.\n980µl of ABTS radical stock solutions were added to different eppendorf tubes. To it were added 100µl of various concentrations of drug solution.\nThe absorbance of control and test samples was recorded immediately at 730nm taking PBS as blank.\nCalculation: The percent antioxidant activity was calculated according to the formula: % Antioxidant activity = [O.D of test sample/O.D of control*100]-100."}}}
{"smiles": "O=C(C[n+]1ccc(C(=O)NCCOC(=O)c2ccccc2)cc1)Nc1ccccc1.[Cl-]", "note": "[Compound 66, 1-(2-phenylamino-2-oxoethyl)-4-[2-(benzoyloxy)ethylaminocarbonyl] pyridinium chloride]", "values": [{"measurement": "% Breakage", "setting": "AGE-BSA; 10 mM test compound", "result": 19.07, "unit": "%"}]}
{"smiles": "O=C(C[n+]1ccsc1)c1ccccc1", "note": "[PTB, reference compound]", "values": [{"measurement": "% Breakage", "setting": "AGE-BSA; 10 mM test compound", "result": 27, "unit": "%"}, {"measurement": "% Breakage", "setting": "AGE-BSA; 20 mM test compound", "result": 47, "unit": "%"}]}
{"smiles": "NC(=O)c1ccc[n+](CC(=O)c2cccs2)c1", "note": "[Compound 85, 3-Carbonylamino-1-(2-thien-2'-yl-2-oxoethyl)-pyridinium bromide]", "values": [{"measurement": "% Breakage", "setting": "AGE-BSA; 10 mM test compound", "result": 3, "unit": "%"}]}
{"smiles": "Cc1ccc(C(=O)NNS(C)(=O)=O)c[n+]1CC(=O)c1cccs1", "note": "[Compound 57, 1-(2-thien-2'-yl-2-oxoethyl)-3-(methanesulfonyl hydrazinocarbonyl) -6-methyl pyridinium bromide]", "values": [{"measurement": "% Breakage", "setting": "AGE-BSA; 1 mM test compound", "result": 77.69, "unit": "%"}]}
{"smiles": "Cc1ccc(C(=O)NNC(=O)c2ccc[n+](CC(=O)c3cccs3)c2)c[n+]1CC(=O)c1cccs1", "note": "[Compound 49, 1-[1-(2-thien-2'-yl-2-oxoethyl)-6-methyl-3-carbonylpyridinium]-2-[1-(2-Thien-2' -yl-2-oxoethyl)-3-carbonylpyridinium] hydrazine dichloride]", "values": [{"measurement": "% Breakage", "setting": "AGE-BSA; 2.5 mM test compound", "result": 85.67, "unit": "%"}, {"measurement": "AGE breaking activity compared to PTB", "setting": "AGE-BSA", "result": "superior"}, {"measurement": "potency (AGE breaking activity compared to PTB)", "setting": "AGE-BSA", "result": "significantly much higher"}]}
{"smiles": "CS(=O)(=O)NNC(=O)c1cc(Br)c[n+](CC(=O)c2cccs2)c1", "note": "[Compound 53, 1-(2-thien-2'-yl-2-oxoethyl)-3-(methanesulfonyl hydrazinocarbonyl)-5-bromo pyridinium bromide]", "values": [{"measurement": "% Breakage", "setting": "AGE-BSA; 2.5 mM test compound", "result": 29.36, "unit": "%"}]}
{"smiles": "CCOC(=O)C[n+]1cccc(C(=O)OCCOC(=O)c2ccccc2)c1.[Br-]", "note": "[Compound 17, 1-(2-ethoxy-2-oxoethyl) -3-(2-(benzoyloxy)ethyloxycarbonyl) pyridinium bromide]", "values": [{"measurement": "% Breakage", "setting": "AGE-BSA; 10 mM test compound", "result": 19, "unit": "%"}]}
{"smiles": "CCOC(=O)C1CCCN1C(=O)C[n+]1cccc(C(=O)NNS(C)(=O)=O)c1.[Cl-]", "note": "(centres unmarked) [Compound 52, 1-(2-(2-ethoxycarbonylpyrrolidin-1-yl)-2-oxoethyl)-3-(methanesulfonyl hydrazinocarbonyl) pyridinium chloride]", "values": [{"measurement": "% Breakage", "setting": "AGE-BSA; 10 mM test compound", "result": 25.34, "unit": "%"}]}
{"smiles": "COCCNC(=O)c1cc(Br)c[n+](CC(=O)c2cccs2)c1", "note": "[Compound 47, 1-(2-thien-2'-yl-2-oxoethyl)-3-((2-methoxyethyl)aminocarbonyl)-5-bromo pyridinium chloride]", "values": [{"measurement": "% Breakage", "setting": "AGE-BSA; 10 mM test compound", "result": 32.38, "unit": "%"}, {"measurement": "AGE breaking activity compared to PTB", "setting": "AGE-BSA", "result": "superior"}]}
{"smiles": "O=C(NNC(=O)c1ccc[n+](CC(=O)c2ccc(Cl)s2)c1)c1ccc[n+](CC(=O)c2ccc(Cl)s2)c1", "note": "[Compound 62, N, N'-bis [3-carbonyl-1-(2-(5-chlorothien-2-yl)-2-oxoethyl)pyridinium] hydrazine dichloride]", "values": [{"measurement": "% Breakage", "setting": "AGE-BSA; 10 mM test compound", "result": 78.41, "unit": "%"}, {"measurement": "AGE breaking activity compared to PTB", "setting": "AGE-BSA", "result": "superior"}, {"measurement": "potency (AGE breaking activity compared to PTB)", "setting": "AGE-BSA", "result": "significantly much higher"}]}
{"smiles": "CC(C)NC(=O)C[n+]1cccc(C(=O)NNS(C)(=O)=O)c1.[Cl-]", "note": "[Compound 43, 1-(2-isopropylamino-2-oxoethyl)-3-(2-methylsulfonylhydrazinocarbonyl) -pyridinium chloride]", "values": [{"measurement": "% Breakage", "setting": "AGE-BSA; 10 mM test compound", "result": 10.85, "unit": "%"}]}
{"smiles": "O=C(NNC(=O)c1cccnc1Cl)c1ccc[n+](CC(=O)c2cccs2)c1", "note": "[Compound 42, 1-(2-thien-2'yl-2-oxoethyl)-3-(2-(2-chloro-3-pyridoyl)hydrazinocarbonyl) -pyridinium chloride]", "values": [{"measurement": "% Breakage", "setting": "AGE-BSA; 10 mM test compound", "result": 12.51, "unit": "%"}]}
{"smiles": "CCOC(=O)C1CCCN1C(=O)C[n+]1cccc(C(=O)NNC(=O)c2ccc[n+](CC(=O)N3CCCC3C(=O)OCC)c2)c1", "note": "(centres unmarked) [Compound 59, N, N'-bis [3-carbonyl-1-(2-(2-ethoxycarbonyl pyrrolidin-1-yl)-2-oxoethyl)pyridinium] hydrazine dichloride]", "values": [{"measurement": "% Breakage", "setting": "AGE-BSA; 10 mM test compound", "result": 20.31, "unit": "%"}]}
{"smiles": "O=C(NNC(=O)c1ccc[n+](CC(=O)c2ccco2)c1)c1ccc[n+](CC(=O)c2ccco2)c1", "note": "[Compound 32, N, N' - bis [3-carbonyl-1-(2-furan-2'-yl-2-oxoethyl)pyridinium] hydrazine dibromide]", "values": [{"measurement": "% Breakage", "setting": "AGE-BSA; 10 mM test compound", "result": 14, "unit": "%"}]}
{"smiles": "COCCNC(=O)c1ccc[n+](CC(=O)NC2CC2)c1.[Cl-]", "note": "[Compound 40, 1-(2-cyclopropylamino-2-oxoethyl)-3-(2-methoxyethylaminocarbonyl)-pyridinium chloride]", "values": [{"measurement": "% Breakage", "setting": "AGE-BSA; 10 mM test compound", "result": 12.38, "unit": "%"}]}
{"smiles": "O=C(C[n+]1cccc(C(=O)NNC(=O)c2ccc[n+](CC(=O)c3ccccc3)c2)c1)c1ccccc1", "note": "[Compound 1, N, N'-bis [3-carbonyl-1-(2-phenyl-2-oxoethyl)-pyridinium] hydrazine dibromide]", "values": [{"measurement": "% Breakage", "setting": "AGE-BSA; 5 mM test compound", "result": 13, "unit": "%"}]}
{"smiles": "O=C(C[n+]1cccc(C(=O)NCCO)c1)Nc1ccccc1.[Cl-]", "note": "[Compound 95, 1-(2- Phenylamino - 2-oxoethyl)-3-((2-hydroxyethyl)aminocarbonyl) - pyridinium chloride]", "values": [{"measurement": "% Breakage", "setting": "AGE-BSA; 20 mM test compound", "result": 48, "unit": "%"}]}
{"smiles": "CCOC(=O)C1CSCN1C(=O)C[n+]1cccc(C(=O)NNS(C)(=O)=O)c1.[Cl-]", "note": "(centres unmarked) [Compound 61, 1-(2-(4-carboethoxy-thiazolidin-3-yl)-2-oxoethyl) -3-(methanesulfonyl hydrazinocarbonyl) pyridinium chloride]", "values": [{"measurement": "% Breakage", "setting": "AGE-BSA; 10 mM test compound", "result": 25.06, "unit": "%"}]}
{"smiles": "O=C(C[n+]1cccc(C(=O)NCCOC(=O)c2ccccc2)c1)Nc1ccccc1.[Cl-]", "note": "[Compound 23, 1-(2-phenylamino-2-oxoethyl)-3-((benzoyloxy)ethylaminocarbonyl) pyridinium chloride]", "values": [{"measurement": "% Breakage", "setting": "AGE-BSA; 10 mM test compound", "result": 37, "unit": "%"}, {"measurement": "% Breakage", "setting": "AGE-BSA; 25 mM test compound", "result": 90, "unit": "%"}, {"measurement": "AGE breaking activity compared to PTB", "setting": "AGE-BSA", "result": "superior"}]}
{"smiles": "NC(=O)c1cc(C(=O)NNC(=O)c2ccc[n+](CC(=O)c3cccs3)c2)c[n+](CC(=O)c2cccs2)c1", "note": "[Compound 60, 1-[1-(2-thien-2'-yl-2-oxoethyl)-5-aminocarbonyl-3-carbonylpyridinium]-2-[1-(2-Thien-2'-yl-2-oxoethyl)-3-carbonylpyridinium] hydrazine dichloride]", "values": [{"measurement": "% Breakage", "setting": "AGE-BSA; 1 mM test compound", "result": 95.36, "unit": "%"}]}
{"smiles": "O=C=Nc1ccc[n+](CC(=O)c2ccc(Cl)cc2Cl)c1.[Br-]", "note": "[Compound 82, 3-Carbonylamino-1-(2-(2,4-dichlorophenyl)-2-oxoethyl)-pyridinium bromide]", "values": [{"measurement": "Relative Free Radical Scavenging Activity(%) on ABTS", "setting": "[1]; 11.5µM", "result": 26.0, "unit": "%"}, {"measurement": "Relative Free Radical Scavenging Activity(%) on ABTS", "setting": "[1]; 23.0µM", "result": 44.3, "unit": "%"}, {"measurement": "Relative Free Radical Scavenging Activity(%) on ABTS", "setting": "[1]; 46.0µM", "result": 62.7, "unit": "%"}, {"measurement": "Relative Free Radical Scavenging Activity(%) on ABTS", "setting": "[1]; 92.5µM", "result": 75.5, "unit": "%"}, {"measurement": "Relative Free Radical Scavenging Activity(%) on ABTS", "setting": "[1]; 925µM", "result": 100, "unit": "%"}]}
{"smiles": "CCOC(=O)C[n+]1cccc(C(=O)NCCO)c1.[Br-]", "note": "[Compound 87, 1-(2-Ethoxy-2-oxoethyl)-3-((2-hydroxyethyl)aminocarbonyl) pyridinium bromide]", "values": [{"measurement": "% Breakage", "setting": "AGE-BSA; 10 mM test compound", "result": 43, "unit": "%"}]}
{"smiles": "NC(=O)c1cccnc1", "note": "[Niacinamide, reference compound]", "values": [{"measurement": "Relative Free Radical Scavenging Activity(%) on ABTS", "setting": "[1]; 11.5µM", "result": 0.0, "unit": "%"}, {"measurement": "Relative Free Radical Scavenging Activity(%) on ABTS", "setting": "[1]; 23.0µM", "result": 2.2, "unit": "%"}, {"measurement": "Relative Free Radical Scavenging Activity(%) on ABTS", "setting": "[1]; 46.0µM", "result": 3.8, "unit": "%"}, {"measurement": "Relative Free Radical Scavenging Activity(%) on ABTS", "setting": "[1]; 92.5µM", "result": 3.8, "unit": "%"}, {"measurement": "Relative Free Radical Scavenging Activity(%) on ABTS", "setting": "[1]; 925µM", "result": 9.2, "unit": "%"}]}
{"smiles": "Cc1ccc(S(=O)(=O)NNC(=O)c2ccc[n+](CC(=O)Nc3ccccc3)c2)cc1.[Cl-]", "note": "[Compound 27, 1-(2-phenylamino-2-oxoethyl)-3-((4-methylphenyl)sulfonyl hydrazinocarbonyl) pyridinium chloride]", "values": [{"measurement": "Relative Free Radical Scavenging Activity(%) on ABTS", "setting": "[1]; 11.5µM", "result": 43.9, "unit": "%"}, {"measurement": "Relative Free Radical Scavenging Activity(%) on ABTS", "setting": "[1]; 23.0µM", "result": 55.5, "unit": "%"}, {"measurement": "Relative Free Radical Scavenging Activity(%) on ABTS", "setting": "[1]; 46.0µM", "result": 75.3, "unit": "%"}, {"measurement": "Relative Free Radical Scavenging Activity(%) on ABTS", "setting": "[1]; 92.5µM", "result": 99.6, "unit": "%"}, {"measurement": "Relative Free Radical Scavenging Activity(%) on ABTS", "setting": "[1]; 925µM", "result": 100, "unit": "%"}]}
